In patent publication US20250215101A1, “DR5 Agonist and PLK1 Inhibitor or CDK Inhibitor Combination Therapy” (Inhibrx Biosciences, Inc., priority 2022, published 2025):

What was measured:
Assay in all cases: Cytotoxicity assay, colorectal cancer cell line panel, onvansertib +/- 1 nM INBRX-109
Assay type in all cases: cell-based
NCI-H747 = settings: for EC50: Homo sapiens, NCI-H747, NCI-H747; for Max Cytotox at 600 nM: NCI-H747
Description: (§1) Monolayer cultures of each cell line were harvested for compound screening as detailed below.
(§2) Also on day 2, test and control articles were added.
(§3) On day 4, viability measurements were taken. […] Data was graphed in GraphPad Prism 9.
(§4) The results for a panel of colorectal cancer cell lines are shown in Table 3 and FIGS. 4-6, and the results for a panel of pancreatic cell lines are shown in Table 4 and FIGS. 7 and 8.

RKO = settings: for EC50: Homo sapiens
Description: as §1, §2, §3, §4

SK-CO-1 = settings: for EC50: Homo sapiens, SK-CO-1, SK-CO-1; for Max Cytotox at 600 nM: SK-CO-1
Description: as §1, §2, §3, §4

SNU-81 = tested on: SNU-81
Description: as §1, §2, §3, §4

SNU-C2A = tested on: SNU-C2A
Description: as §1, §2, §3, §4

SNU-C5 = tested on: SNU-C5
Description: as §1, §2, §3, §4

SW-1116 = settings: for EC50: Homo sapiens, SW 1116, SW-1116; for Max Cytotox at 600 nM: SW-1116
Description: as §1, §2, §3, §4

SW-1463 = settings: for EC50: Homo sapiens, SW1463, SW-1463; for Max Cytotox at 600 nM: SW-1463
Description: as §1, §2, §3, §4

SW-403 = settings: for EC50: Homo sapiens, SW-403, SW-403; for Max Cytotox at 600 nM: SW-403
Description: as §1, §2, §3, §4

SW-480 = settings: for EC50: Homo sapiens, SW480, SW-480; for Max Cytotox at 600 nM: SW-480
Description: as §1, §2, §3, §4

SW-48 = settings: for EC50: Homo sapiens, SW48, SW-48; for Max Cytotox at 600 nM: SW-48
Description: as §1, §2, §3, §4

SW-837 = settings: for EC50: Homo sapiens, SW837, SW-837; for Max Cytotox at 600 nM: SW-837
Description: as §1, §2, §3, §4

SW-948 = settings: for EC50: Homo sapiens, SW948, SW-948; for Max Cytotox at 600 nM: SW-948
Description: as §1, §2, §3, §4

SW620 = settings: for EC50: Homo sapiens, SW-620, SW620; for Max Cytotox at 600 nM: SW620
Description: as §1, §2, §3, §4

T84 = settings: for EC50: Homo sapiens, T84, T84; for Max Cytotox at 600 nM: T84
Description: as §1, §2, §3, §4

CN1CCN(c2ccc(OC(F)(F)F)c(Nc3ncc4c(n3)-c3c(c(C(N)=O)nn3CCO)CC4)c2)CC1 [Onvansertib]
EC50 (NCI-H747; onvansertib + 1 nM INBRX-109): 78.7 nM | EC50 (NCI-H747; onvansertib only): 71.6 nM | Max Cytotox at 600 nM (NCI-H747; onvansertib + 1 nM INBRX-109): 44.5% | Max Cytotox at 600 nM (NCI-H747; onvansertib only): 17.4% | EC50 (RKO; onvansertib + 1 nM INBRX-109): 54.7 nM | EC50 (RKO; onvansertib only): 85.9 nM | Max Cytotox at 600 nM (RKO; onvansertib + 1 nM INBRX-109): 93.8% | Max Cytotox at 600 nM (RKO; onvansertib only): 65.7% | EC50 (SK-CO-1; onvansertib + 1 nM INBRX-109): 111 nM | EC50 (SK-CO-1; onvansertib only): 113 nM | Max Cytotox at 600 nM (SK-CO-1; onvansertib + 1 nM INBRX-109): 94.2% | Max Cytotox at 600 nM (SK-CO-1; onvansertib only): 52.8% | EC50 (SNU-81; onvansertib + 1 nM INBRX-109): 71.9 nM | Max Cytotox at 600 nM (SNU-81; onvansertib + 1 nM INBRX-109): 92.3% | EC50 (SNU-81; onvansertib only): 187 nM | Max Cytotox at 600 nM (SNU-81; onvansertib only): 24.3% | EC50 (SNU-C2A; onvansertib + 1 nM INBRX-109): 42.9 nM | Max Cytotox at 600 nM (SNU-C2A; onvansertib + 1 nM INBRX-109): 78.0% | EC50 (SNU-C2A; onvansertib only): 72.7 nM | Max Cytotox at 600 nM (SNU-C2A; onvansertib only): 42.9% | EC50 (SNU-C5; onvansertib + 1 nM INBRX-109): 57.7 nM | Max Cytotox at 600 nM (SNU-C5; onvansertib + 1 nM INBRX-109): 87.7% | EC50 (SNU-C5; onvansertib only): 95.6 nM | Max Cytotox at 600 nM (SNU-C5; onvansertib only): 42.9% | EC50 (SW-1116; onvansertib + 1 nM INBRX-109): 411 nM | EC50 (SW-1116; onvansertib only): 441 nM | Max Cytotox at 600 nM (SW-1116; onvansertib + 1 nM INBRX-109): 39.4% | Max Cytotox at 600 nM (SW-1116; onvansertib only): 10.4% | EC50 (SW-1463; onvansertib + 1 nM INBRX-109): 98 nM | EC50 (SW-1463; onvansertib only): 201 nM | Max Cytotox at 600 nM (SW-1463; onvansertib + 1 nM INBRX-109): 64.2% | Max Cytotox at 600 nM (SW-1463; onvansertib only): 21.0% | EC50 (SW-403; onvansertib + 1 nM INBRX-109): 64.9 nM | EC50 (SW-403; onvansertib only): 62.5 nM | Max Cytotox at 600 nM (SW-403; onvansertib + 1 nM INBRX-109): 89.0% | Max Cytotox at 600 nM (SW-403; onvansertib only): 46.4% | EC50 (SW-480; onvansertib + 1 nM INBRX-109): 93.3 nM | EC50 (SW-480; onvansertib only): 126 nM | Max Cytotox at 600 nM (SW-480; onvansertib + 1 nM INBRX-109): 86.3% | Max Cytotox at 600 nM (SW-480; onvansertib only): 40.7% | EC50 (SW-48; onvansertib + 1 nM INBRX-109): 28.3 nM | EC50 (SW-48; onvansertib only): 37.3 nM | Max Cytotox at 600 nM (SW-48; onvansertib + 1 nM INBRX-109): 99.4% | Max Cytotox at 600 nM (SW-48; onvansertib only): 76.6% | EC50 (SW-837; onvansertib + 1 nM INBRX-109): 184 nM | EC50 (SW-837; onvansertib only): 227 nM | Max Cytotox at 600 nM (SW-837; onvansertib + 1 nM INBRX-109): 73.5% | Max Cytotox at 600 nM (SW-837; onvansertib only): 24.5% | EC50 (SW-948; onvansertib + 1 nM INBRX-109): 23.3 nM | EC50 (SW-948; onvansertib only): 97 nM | Max Cytotox at 600 nM (SW-948; onvansertib + 1 nM INBRX-109): 99.0% | Max Cytotox at 600 nM (SW-948; onvansertib only): 43.2% | EC50 (SW620; onvansertib + 1 nM INBRX-109): 54.6 nM | EC50 (SW620; onvansertib only): 62.1 nM | Max Cytotox at 600 nM (SW620; onvansertib + 1 nM INBRX-109): 90.4% | Max Cytotox at 600 nM (SW620; onvansertib only): 61.8% | EC50 (T84; onvansertib + 1 nM INBRX-109): 297 nM | EC50 (T84; onvansertib only): 355 nM | Max Cytotox at 600 nM (T84; onvansertib + 1 nM INBRX-109): 62.9% | Max Cytotox at 600 nM (T84; onvansertib only): 32.1%
